{
  "source": "patent US20210253598A1",
  "about": "“ARYL ANNULATED MACROCYCLIC INDOLE DERIVATIVES” (priority 2017, published 2021)",
  "key": {"MCL-1": {"target": "MCL-1 (Homo sapiens, UniProt Q07820, K194A/K197A/R201A)", "sequence (Q07820 173-321 K194A/K197A/R201A, looked up)": "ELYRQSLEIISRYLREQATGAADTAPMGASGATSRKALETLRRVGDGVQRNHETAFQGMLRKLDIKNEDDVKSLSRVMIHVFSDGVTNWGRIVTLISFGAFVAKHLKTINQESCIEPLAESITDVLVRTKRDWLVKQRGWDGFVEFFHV", "assay": "Protein-protein interaction assay MCL-1/Noxa BH3 peptide, TR-FRET (MCL-1 assay, Assay 1)", "assay_type": "binding", "conditions": "MBP-MCL-1 / Noxa BH3 peptide, median, read-out: MCL-1 Assay [M] (median)", "procedure,_shortened": "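Human MBP-fused MCL-1 (aa 173-321; 1 nM final) was pre-incubated 10 min at 22 °C with compound in pH 7 Tris buffer containing NaCl, KF, Tween-20, DTT and BGG. Displacement of biotinylated Noxa BH3 peptide was read by TR-FRET (anti-MBP-Eu cryptate/streptavidin-XL665) after 1 h at 22 °C plus overnight at 4 °C. IC50 came from four-parameter fits against DMSO controls.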"}, "SUDHL5 [1]": {"tested_on": "SUDHL5", "assay": "Anti-proliferative effect in SUDHL5 cells, CellTiter-Glo (Assay 7)", "assay_type": "cell-based", "conditions": "SUDHL5, 72 hours incubation, CellTiter-Glo; median; read-out: Antiproli SUDHL5 [M] (median)", "procedure,_shortened": "(§1)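 Cells plated and incubated overnight at 37° C, then exposed to compound for 72 hours. Viability read as CellTiter-Glo luminescence, with a day 0 plate as time-zero reference. IC50 calculated with day 0 values and DMSO control values as references.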"}, "SUDHL5 [2]": {"tested_on": "SUDHL5", "assay": "Induction of caspase-3/7 activity in SUDHL5 cells (Assay 4)", "assay_type": "cell-based", "conditions": "SUDHL5, 3 hours treatment, Caspase-Glo 3/7; median; read-out: Caspase SUDHL5 [M] (median)", "procedure,_shortened": "(§2)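 DLBCL lines SUDHL5 and SUDHL10 were treated with compound for 3 h at 37 °C. Caspase-3/7 activity was then read by Caspase-Glo 3/7 luminescence after 1 h at 37 °C. Medium-only background was subtracted and values were normalized to the mean of DMSO-treated cells.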"}, "MV-4-11": {"tested_on": "MV-4-11", "assay": "Anti-proliferative effect in MV-4-11 cells, CellTiter-Glo (Assay 7)", "assay_type": "cell-based", "conditions": "MV-4-11, 72 hours incubation, CellTiter-Glo; several values per example; read-out: Antiproli MV-4-11", "procedure,_shortened": "as §1"}, "BCL-2": {"target": "BCL-2 (Homo sapiens, UniProt P10415)", "sequence (P10415 1-211)": "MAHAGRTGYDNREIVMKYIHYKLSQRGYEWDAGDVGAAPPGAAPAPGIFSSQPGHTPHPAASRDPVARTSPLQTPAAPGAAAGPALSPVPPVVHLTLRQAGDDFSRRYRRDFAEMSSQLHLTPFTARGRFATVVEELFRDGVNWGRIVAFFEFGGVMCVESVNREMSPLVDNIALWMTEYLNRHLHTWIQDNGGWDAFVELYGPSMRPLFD", "assay": "Protein-protein interaction assay BCL-2/Bad BH3 peptide, TR-FRET (BCL-2 assay, Assay 3)", "assay_type": "binding", "conditions": "His-BCL-2 / Bad BH3 peptide, median"}, "SUDHL10 [3]": {"tested_on": "SUDHL10", "assay": "Induction of caspase-3/7 activity in SUDHL10 cells (Assay 4)", "assay_type": "cell-based", "conditions": "SUDHL10, 3 hours treatment, Caspase-Glo 3/7; median; read-out: Caspase SUDHL10 [M] (median)", "procedure,_shortened": "as §2"}, "SUDHL10 [4]": {"tested_on": "SUDHL10", "assay": "Induction of cytotoxicity in SUDHL10 cells, CellTiter-Glo (Assay 6)", "assay_type": "cell-based", "conditions": "SUDHL10, 5 hours incubation, median, read-out: Cytotox SUDHL10 [M] (median)", "procedure,_shortened": "(§3)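 Cells plated and held overnight at 37° C in a humidified incubator, then compound-treated for 5 hours at 37° C. Viability read by CellTiter-Glo luminescence after 15 minutes shaking at room temperature; cell-free medium served as control.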"}, "SUDHL5 [5]": {"tested_on": "SUDHL5", "assay": "Induction of cytotoxicity in SUDHL5 cells, CellTiter-Glo (Assay 6)", "assay_type": "cell-based", "conditions": "SUDHL5, 5 hours incubation, median, read-out: Cytotox SUDHL5 [M] (median)", "procedure,_shortened": "as §3"}},
  "note": "Structures can show the parent of a compound that is named as a salt.",
  "data": [
    {"smiles": "CCc1nn(C)c2c1-c1c(Cl)ccc3c(CCCOc4cccc5cc(F)ccc45)c(C(=O)O)n(c13)Cc1ccccc1COC2", "note": "(single isomer, unassigned; enantiomer 1) [Example 58, (+)-3-Chloro-4-ethyl-17-{3-[(6-fluoronaphthalen-1-yl)oxy]propyl}-6-methyl-6,7,9,14-tetrahydro-indolo[7,1-fg]pyrazolo[3,4-d][2,8]benzoxazacycloundecine-16-carboxylic acid-N-ethylethanamine Salt (Enantiomer 1)]", "values": [
      {"measurement": "IC50", "setting": "MCL-1", "result": "2.6e-09", "unit": "M"},
      {"measurement": "IC50", "setting": "SUDHL5 [1]", "result": "1.2e-06", "unit": "M"},
      {"measurement": "EC50", "setting": "SUDHL5 [2]", "result": "8e-07", "unit": "M"},
      {"measurement": "IC50", "setting": "MV-4-11", "result": 1360, "unit": "nM"},
      {"measurement": "IC50", "setting": "BCL-2", "result": 10600, "unit": "nM"},
      {"measurement": "EC50", "setting": "SUDHL10 [3]", "result": "2.1e-06", "unit": "M"},
      {"measurement": "IC50", "setting": "SUDHL10 [4]", "result": "2.6e-06", "unit": "M"},
      {"measurement": "IC50", "setting": "SUDHL5 [5]", "result": "8.1e-07", "unit": "M"}
    ]}
  ]
}
